Measurements taken from patent US7910548B2, “Methods for treating obesity” (Amylin Pharmaceuticals, Inc., priority 1997, dated 2011).
Bridges are numbered along the chain shown (N, C = ends). Where no end group is shown, it is not given here.

How the values were obtained:
[1] = Tritiated glucose gastric emptying assay; format: in vivo, rat
Excerpt: In a phenol red method, which is described in Example 7 below, conscious rats receive by gavage an acoloric gel containing methyl cellulose and a phenol red indicator. Twenty minutes after gavage, animals are anesthetized using halothane, the stomach exposed and clamped at the pyloric and lower esophageal sphincters, removed and opened into an alkaline solution. Stomach content may be derived from the intensity of the phenol red in the alkaline solution, measured by absorbance at a wavelength of 560 nm. In a tritiated glucose method, which is described in Example 8 below, conscious rats are gavaged with tritiated glucose in water. The rats are gently restrained by the tail, the tip of which is anesthetized using lidocaine. Tritium in the plasma separated from tail blood is collected at various timepoints and detected in a beta counter. Test compounds are normally administered about one minute before gavage.
Conscious, non-fasted, Harlan Sprague Dawley rats were restrained by the tail, the tip of which was anesthetized using 2% lidocaine. Tritium in plasma separated from tail blood collected 0, 15, 30, 60, 90 and 120 minutes after gavage was detected in a beta counter.

[2] = Measurement of body weight in insulin-using Type II diabetes patients, 4-week study; format: in vivo, human; details: 4 weeks, change from baseline
Protocol: Study participants were males and females 25 to 78 years of age with a history of Type II diabetes mellitus requiring treatment with insulin for at least 6 months prior to the pre-screening visit. […] The study employed methods described in Thompson et al., Diabetes 46:632-636 (1997). Following a placebo lead-in period, patients were randomized to receive placebo or one of three dose regimens of ^25,28,29Pro-h-amylin (pramlintide) for 4 weeks: 30 μg QID (before breakfast, lunch, dinner and evening snack), 60 μg TID (before breakfast, lunch and dinner) or 60 μg QID (before breakfast, lunch, dinner and evening snack). Throughout the study drug period, patients self-administered four injections of study drug daily, within 15 minutes of each meal and the evening snack. During the double-blind period, patients randomized to pramlintide 60 μg TID administered placebo before the evening snack. Both pramlintide and placebo were administered as separate injections into the subcutaneous tissue of the anterior abdominal wall; the specific site was alternated after each injection. Patients were instructed to remain on their usual diet, insulin and exercise regimens throughout the study, unless otherwise instructed by the investigator, and to abstain from alcoholic beverages prior to all clinic visits.

[3] = target: amylin receptors in membranes of rat basal forebrain (nucleus accumbens and surrounding regions) (rat); assay: competition with 125I-rat amylin on rat basal forebrain membranes

Molecule: rat amylin
- ED50 derived from the logistic fit (plasma tritium AUC over 30 minutes) ([1]; non-fasted Harlan Sprague Dawley rats, subcutaneous 1 minute before gavage): 0.35 μg
- Absorption of the label (plasma tritium) ([1]; subcutaneous injection, 0.1-100 μg): dose-dependently slowed and/or delayed the absorption of the label

Molecule: CC[C@H](C)[C@H](NC(=O)[C@@H]1CCCN1C(=O)CNC(=O)[C@H](Cc1ccccc1)NC(=O)[C@H](CC(N)=O)NC(=O)[C@H](CC(N)=O)NC(=O)[C@H](CO)NC(=O)[C@H](CO)NC(=O)[C@H](Cc1c[nH]cn1)NC(=O)[C@@H](NC(=O)[C@H](CC(C)C)NC(=O)[C@H](Cc1ccccc1)NC(=O)[C@H](CC(N)=O)NC(=O)[C@H](C)NC(=O)[C@H](CC(C)C)NC(=O)[C@H](CCCNC(=N)N)NC(=O)[C@H](CCC(N)=O)NC(=O)[C@@H](NC(=O)[C@H](C)NC(=O)[C@@H]1CSSC[C@H](NC(=O)[C@@H](N)CCCCN)C(=O)N[C@@H](CC(N)=O)C(=O)N[C@@H]([C@@H](C)O)C(=O)N[C@@H](C)C(=O)N[C@@H]([C@@H](C)O)C(=O)N1)[C@@H](C)O)C(C)C)C(=O)N[C@@H](CC(C)C)C(=O)N1CCC[C@H]1C(=O)N1CCC[C@H]1C(=O)N[C@H](C(=O)N[C@@H](CC(N)=O)C(=O)N[C@H](C(=O)NCC(=O)N[C@@H](CO)C(=O)N[C@@H](CC(N)=O)C(=O)N[C@H](C(=O)N[C@@H](Cc1ccc(O)cc1)C(N)=O)[C@@H](C)O)C(C)C)[C@@H](C)O [Pramlintide, ^25,28,29Pro-h-amylin]
- Body Weight: Change at Week 4, Median ([2]; 30 μg QID subcutaneous): -0.45 kg
- Body Weight: Change at Week 4, Median ([2]; 60 μg QID subcutaneous): -0.45 kg
- Body Weight: Change at Week 4, Median ([2]; 60 μg TID subcutaneous): -1.05 kg

B1: ^2,7Cyclo-[^2Asp, ^7Lys]-h-Amylin (peptide)
peptide: KDNTATKATQRLANFLVHSSNNFGAILSSTNVGSNTY
modifications: lactam 2-7; ends not checked
- IC50 [3]: 0.31 nM
